Experimental data taken from ChEMBL document CHEMBL4251653, “In vivo potent BM635 analogue with improved drug-like properties” (Eur J Med Chem, 2018).
≈ marks a conversion by molar mass, not a printed value.

Assays:
[1] = Lipophilicity, log D of the compound at pH 7.4 by UV-HPLC method; format: physicochemical; settings: buffer
HepG2 [2] = assay: Cytotoxicity against human HepG2 cells assessed as compound concentration causing changes in membrane permeability by Cell Health assay; format: cell-based
[3] = Solubility of the compound in FaSSIF at pH 6.5 incubated for 4 hrs by UPLC-MS method; format: physicochemical
HepG2 [4] = assay: Cytotoxicity against human HepG2 cells assessed as compound concentration causing changes in nuclear morphology by Cell Health assay; format: cell-based
[5] = biological target: Voltage-gated inwardly rectifying potassium channel KCNH2 (Homo sapiens, UniProt Q12809); assay: Inhibition of human ERG by [3H]dofetilide binding displacement assay
Voltage-gated inwardly rectifying potassium channel KCNH2, sequence (Q12809 whole entry): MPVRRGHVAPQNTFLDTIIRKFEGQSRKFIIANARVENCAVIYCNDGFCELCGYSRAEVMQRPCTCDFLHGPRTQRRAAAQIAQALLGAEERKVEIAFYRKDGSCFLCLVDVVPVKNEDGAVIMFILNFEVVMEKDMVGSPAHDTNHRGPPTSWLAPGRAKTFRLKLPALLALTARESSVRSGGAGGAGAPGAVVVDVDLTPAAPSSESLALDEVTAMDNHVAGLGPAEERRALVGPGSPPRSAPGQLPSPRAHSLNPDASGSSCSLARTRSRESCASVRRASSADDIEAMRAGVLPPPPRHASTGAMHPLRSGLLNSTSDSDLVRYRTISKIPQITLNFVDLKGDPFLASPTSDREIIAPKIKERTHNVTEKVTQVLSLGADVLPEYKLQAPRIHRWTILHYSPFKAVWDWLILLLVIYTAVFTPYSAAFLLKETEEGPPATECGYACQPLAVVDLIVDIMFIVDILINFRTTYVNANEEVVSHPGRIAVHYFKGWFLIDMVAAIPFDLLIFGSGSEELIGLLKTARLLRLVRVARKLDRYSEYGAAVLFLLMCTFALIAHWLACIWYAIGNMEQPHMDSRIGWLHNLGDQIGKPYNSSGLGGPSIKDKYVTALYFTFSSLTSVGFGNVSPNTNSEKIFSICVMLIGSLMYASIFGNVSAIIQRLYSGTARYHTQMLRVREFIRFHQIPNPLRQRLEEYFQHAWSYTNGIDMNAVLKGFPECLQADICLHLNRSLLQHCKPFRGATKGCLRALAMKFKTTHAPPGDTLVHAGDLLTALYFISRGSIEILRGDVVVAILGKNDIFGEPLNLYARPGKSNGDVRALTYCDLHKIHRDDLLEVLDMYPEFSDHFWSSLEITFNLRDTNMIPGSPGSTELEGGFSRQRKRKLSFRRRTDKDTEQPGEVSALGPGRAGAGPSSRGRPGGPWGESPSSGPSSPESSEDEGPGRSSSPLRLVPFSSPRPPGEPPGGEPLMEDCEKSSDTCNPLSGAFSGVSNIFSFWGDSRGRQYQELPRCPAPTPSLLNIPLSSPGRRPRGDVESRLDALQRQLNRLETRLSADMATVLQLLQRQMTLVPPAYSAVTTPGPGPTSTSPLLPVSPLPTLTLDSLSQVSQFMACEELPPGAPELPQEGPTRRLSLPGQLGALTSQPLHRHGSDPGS

[6] = tested on: Mycobacterium tuberculosis; assay: microbe, parasite or virus in culture; settings: 144 h
Description: Antitubercular activity against Mycobacterium tuberculosis after 6 days by resazurin-based fluorescence assay

[7] = tested on: Mycobacterium tuberculosis; assay: microbe, parasite or virus in culture; settings: H37Rv, THP-1, 96 h
Description: Antitubercular activity against Mycobacterium tuberculosis H37Rv infected in human THP1 macrophages incubated for 4 days by luciferase reporter gene assay

in vitro = settings: human, HepG2 cells
Description: Selectivity index, ratio of TC50 for human HepG2 cells to MIC for Mycobacterium tuberculosis

HepG2 [8] = assay: Cytotoxicity against human HepG2 cells assessed as compound concentration causing changes in mitochondrial potential by Cell Health assay; format: cell-based
Albumin = Albumin (Homo sapiens, UniProt P02768); assay: Binding affinity to human serum albumin; format: ADME; settings: isolated protein
Albumin, sequence (P02768 whole entry): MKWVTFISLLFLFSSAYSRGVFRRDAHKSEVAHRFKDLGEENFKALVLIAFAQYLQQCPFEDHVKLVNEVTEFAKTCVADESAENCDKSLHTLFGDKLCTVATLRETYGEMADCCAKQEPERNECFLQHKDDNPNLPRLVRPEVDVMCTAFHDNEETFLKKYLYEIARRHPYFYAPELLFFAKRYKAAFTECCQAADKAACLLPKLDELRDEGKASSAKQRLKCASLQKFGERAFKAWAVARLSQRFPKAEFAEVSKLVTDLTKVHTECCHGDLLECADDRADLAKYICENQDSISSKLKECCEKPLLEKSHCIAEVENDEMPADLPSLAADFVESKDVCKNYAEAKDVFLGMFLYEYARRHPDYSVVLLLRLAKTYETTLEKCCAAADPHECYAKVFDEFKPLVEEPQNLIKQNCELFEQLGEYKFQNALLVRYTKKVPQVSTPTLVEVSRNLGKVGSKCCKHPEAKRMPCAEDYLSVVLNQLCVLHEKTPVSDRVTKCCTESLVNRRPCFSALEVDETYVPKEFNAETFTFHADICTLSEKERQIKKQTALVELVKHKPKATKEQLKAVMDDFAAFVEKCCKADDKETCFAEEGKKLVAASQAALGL

[9] = Cytotoxicity against human HepG2 cells incubated for 48 hrs by Cell-titer Glo assay; format: cell-based; settings: read-out: TC50
[10] = Kinetic solubility in pH 7.4 phosphate buffered saline incubated for 1 hr by chemiluminescent nitrogen detection method; format: physicochemical; settings: read-out: Kinetic_solubility
[11] = Permeability of the compound by artificial membrane permeability assay; format: ADME; settings: PAMPA; read-out: permeability

Row | Structure (SMILES) | MIC [6] [µM] | IC50 [7] [nM] | selectivity ratio (in vitro) | CC50 at 48 h [9] [µM] | further results
1 | Cc1c(CN2CCOCC2)cc(-c2ccc(C(C)C)cc2)n1-c1ccc(F)cc1 | 0.12 (≈ 0.0471 µg/mL) | 100 | 333 | 40 | logD ([1]; read-out: logD): 8.1; Activity (HepG2 [2]): > 40 µM; solubility at 4 h [3]: 5 µg/mL (≈ 12.7 µM); Activity (HepG2 [4]): > 40 µM; IC50 [5]: 10 µM; Activity (HepG2 [8]): > 40 µM; Activity (Albumin): 98.37%; solubility kinetic at 1 h [10]: < 1 µM; Papp [11]: 24 ×10⁻⁶ cm/s
2 | COc1ccc(-c2cc(CN3CCOCC3)c(C)n2C(C)C)cc1 | 2.5 (≈ 0.821 µg/mL) |  |  |  | 
3 | Cc1c(CN2CCOCC2)cc(-c2ccc(C(C)C)cc2)n1C1CCCC(O)C1 (centres undefined) | > 40 |  |  | 20 | 
4 | Cc1c(CN2CCOCC2)cc(-c2ccc(C(C)C)cc2)n1Cc1ccc(F)cc1 | 0.08 (≈ 0.0325 µg/mL) | 160 | 250 | 20 | logD ([1]; read-out: logD): 8.2; IC50 [5]: 5 µM; Activity (Albumin): 98.47%; solubility kinetic at 1 h [10]: 11 µM (≈ 4.47 µg/mL); Papp [11]: 30 ×10⁻⁶ cm/s
5 | Cc1c(CN2CCOCC2)cc(-c2ccc(C(F)(F)F)cc2)n1C1CCC1 | 1.25 (≈ 0.473 µg/mL) |  | 67 | 20 | 
6 | Cc1[nH]c(-c2ccc(C(C)C)cc2)cc1CN1CCOCC1 | 12.5 (≈ 3.73 µg/mL) | > 10000 |  | 1.6 | 
7 | Cc1c(CN2CCOCC2)cc(-c2ccc(C(C)C)cc2)n1CC(C)(C)O | 2.5 (≈ 0.926 µg/mL) | 2500 |  | 40 | Activity (HepG2 [2]): 100 µM; Activity (HepG2 [4]): 50 µM; Activity (HepG2 [8]): 126 µM
8 | COCCCn1c(-c2ccc(C(C)C)cc2)cc(CN2CCOCC2)c1C | 1.3 (≈ 0.482 µg/mL) | 1250 |  |  | Activity (HepG2 [2]): 40 µM; Activity (HepG2 [4]): 32 µM; Activity (HepG2 [8]): 50 µM
9 | CC(=O)Nc1ccc(-c2cc(CN3CCOCC3)c(C)n2-c2ccc(F)cc2)cc1 | 1.25 (≈ 0.509 µg/mL) | 3300 | 40 | 80 | 
10 | Cc1c(CN2CCOCC2)cc(-c2ccc(C(C)C)cc2)n1CC(C)C | 0.2 (≈ 0.0709 µg/mL) | 80 | 100 | 20 | logD ([1]; read-out: logD): 8.46; IC50 [5]: 16 µM; Activity (Albumin): 97.12%; solubility kinetic at 1 h [10]: 47 µM (≈ 16.7 µg/mL); Papp [11]: 43 ×10⁻⁶ cm/s
11 | Cc1c(CN2CCOCC2)cc(-c2ccc(C(C)C)cc2)n1CCCC(=O)O | > 40 |  |  | > 100 | 
12 | Cc1c(CN2CCOCC2)cc(-c2ccc(C(C)C)cc2)n1-c1ccc(C(=O)O)cc1 | > 40 |  |  | > 100 | 
13 | Cc1c(CN2CCOCC2)cc(Cc2ccccc2)n1-c1ccc(F)cc1 | > 5 |  |  | 10 | 
14 | Cc1cc(CN2CCOCC2)c(C)n1-c1ccc(F)cc1 | > 5 | > 10000 |  | > 100 | 
15 | Cc1c(CN2CCOCC2)cc(-c2ccc(C(C)C)cc2)n1[C@@H]1CCCNC1 | > 80 |  |  | 16 | 
16 | Cc1c(CN2CCOCC2)cc(-c2ccc(C(C)C)cc2)n1CC1CCCO1 (centres undefined) | 5 (≈ 1.91 µg/mL) | 5000 |  | 32 | Activity (HepG2 [2]): 50 µM; Activity (HepG2 [4]): 40 µM; Activity (HepG2 [8]): 63 µM
17 | Cc1c(CN2CCOCC2)cc(-c2ccc(C(C)C)cc2)n1C1CCCCC1 | 0.3 (≈ 0.114 µg/mL) | 630 | > 267 | > 100 | logD [1]: 9.13; Activity (HepG2 [2]): > 200 µM; Activity (HepG2 [4]): > 200 µM; IC50 [5]: 50 µM; Activity (HepG2 [8]): > 200 µM; Activity (Albumin): 98.1%; solubility kinetic at 1 h [10]: < 1 µM; Papp [11]: 27 ×10⁻⁶ cm/s
18 | Cc1c(CN2CCOCC2)cc(-c2ccc(C(C)C)cc2)n1C | 1.25 (≈ 0.391 µg/mL) | 1250 | 13 | 16 | Activity (HepG2 [2]): 40 µM; Activity (HepG2 [4]): 40 µM; Activity (HepG2 [8]): 50 µM
19 | Cc1c(CN2CCOCC2)cc(-c2ccc(C(C)C)cc2)n1C1CCOCC1 | 2.5 (≈ 0.956 µg/mL) |  |  | 50.1 | 
20 | Cc1cc(Cl)ccc1-c1cc(CN2CCOCC2)c(C)n1-c1ccc(F)cc1 | 5 (≈ 1.99 µg/mL) | > 10000 |  | > 100 | Activity (HepG2 [2]): > 200 µM; Activity (HepG2 [4]): > 200 µM; Activity (HepG2 [8]): > 200 µM
21 | Cc1c(CN2CCOCC2)cc(-c2ccc(Cl)cn2)n1-c1ccc(F)cc1 | > 125 | > 10000 |  | > 100 | Activity (HepG2 [2]): > 200 µM; Activity (HepG2 [4]): > 200 µM; Activity (HepG2 [8]): > 200 µM

Row | Structure (SMILES) | MIC [6] [µM] | IC50 [7] [nM] | selectivity ratio (in vitro) | CC50 at 48 h [9] [µM] | further results
22 | Cc1c(CN2CCOCC2)cc(-c2ccc(Cl)cc2)n1C(C)C | 2.5 (≈ 0.832 µg/mL) |  |  |  | 
23 | Cc1c(CN2CCOCC2)cc(-c2ccc(C(C)C)cc2)n1C1CCN(C)CC1 | > 5 | > 10000 |  | 20 | 
24 | Cc1c(CN2CCOCC2)cc(-c2ccc(C(F)(F)F)cc2)n1C1CCCCC1 | 1.25 (≈ 0.508 µg/mL) |  | > 167 | > 100 | 
25 | COCCn1c(-c2ccc(C(C)C)cc2)cc(CN2CCOCC2)c1C | 1.3 (≈ 0.463 µg/mL) | 1320 | 39 | 50.1 | 
26 | Cc1c(CN2CCOCC2)cc(-c2ccc(Cl)nc2)n1-c1ccc(F)cc1 | > 5 | > 10000 |  | 80 | 
27 | Cc1c(CN2CCOCC2)cc(-c2ccc(C(C)C)cc2)n1-c1cccc(C(=O)O)c1 | 40 (≈ 16.7 µg/mL) |  |  | > 100 | 
28 | Cc1c(CN2CCOCC2)cc(-c2ccc(C(C)C)cc2)n1C1COC1 | 2.5 (≈ 0.886 µg/mL) | 2500 |  | 80 | Activity (HepG2 [2]): 80 µM; Activity (HepG2 [4]): 80 µM; Activity (HepG2 [8]): 100 µM
29 | Cc1c(CN2CCOCC2)cc(-c2ccc(C(C)C)cc2)n1-c1ccc(F)cn1 | 0.6 (≈ 0.236 µg/mL) | 600 | 33 | 20 | logD ([1]; read-out: logD): 6.85; Activity (HepG2 [2]): 63 µM; Activity (HepG2 [4]): 50 µM; IC50 [5]: 8 µM; Activity (HepG2 [8]): 80 µM; Activity (Albumin): 94.13%; solubility kinetic at 1 h [10]: 276 µM (≈ 109 µg/mL); Papp [11]: 64 ×10⁻⁶ cm/s
30 | Cc1c(CN2CCOCC2)cc(-c2ccc(C(C)C)cc2)n1-c1ncccn1 | 40 (≈ 15.1 µg/mL) |  |  | > 100 | 
31 | Cc1c(CN2CCOCC2)cc(-c2ccc(C(C)C)cc2)n1CCC(=O)O | > 40 |  |  | > 100 | 
32 | Cc1c(CN2CCOCC2)cc(-c2ccc(C(C)C)cc2)n1C1CCC1 | 0.08 (≈ 0.0282 µg/mL) | 80 | 250 | 20 | logD ([1]; read-out: logD): 8.13; Activity (HepG2 [2]): 25 µM; Activity (HepG2 [4]): 25 µM; IC50 [5]: 8 µM; Activity (HepG2 [8]): 32 µM; Activity (Albumin): 98.12%; solubility kinetic at 1 h [10]: 71 µM (≈ 25 µg/mL); Papp [11]: 55 ×10⁻⁶ cm/s
33 | Cc1c(CN2CCOCC2)cc(-c2ccc(C(C)C)cc2)n1C1CC1 | 0.3 (≈ 0.102 µg/mL) | 200 | 67 | 20 | logD ([1]; read-out: logD): 7.21; Activity (HepG2 [2]): 40 µM; solubility at 4 h [3]: 511 µg/mL (≈ 1510 µM); Activity (HepG2 [4]): 40 µM; IC50 [5]: 8 µM; Activity (HepG2 [8]): 50 µM; Activity (Albumin): 96.49%; solubility kinetic at 1 h [10]: 181 µM (≈ 61.3 µg/mL)
34 | Cc1c(CN2CCOCC2)cc(-c2ccc(C(C)C)cc2)n1-c1ccc(N(C)C)cc1 | 1.25 (≈ 0.522 µg/mL) | 2500 | 13 | 16 | 
35 | Cc1c(CN2CCOCC2)cc(-c2ccc(C(C)C)cc2)n1[C@@H]1CCCN(C)C1 | > 40 |  |  | 25 | 
36 | Cc1c(CN2CCOCC2)cc(-c2ccc(C(C)C)cc2)n1CC1CCOCC1 | > 5 | 5280 |  | > 100 | 
37 | Cc1c(CN2CCOCC2)cc(-c2ccc(C(F)(F)F)cc2)n1-c1ccc(F)cc1 | 0.6 (≈ 0.251 µg/mL) |  | 167 | > 100 | logD ([1]; read-out: logD): 7.67; IC50 [5]: > 50 µM; Activity (Albumin): 98.33%; solubility kinetic at 1 h [10]: < 1 µM; Papp [11]: 15 ×10⁻⁶ cm/s
38 | Cc1c(CN2CCOCC2)cc(C2CCCCC2)n1-c1ccc(F)cc1 | > 5 | > 10000 |  | 50 | 
39 | Cc1c(CN2CCOCC2)cc(-c2ccc(C(F)(F)F)cc2)n1C(C)C | 2.5 (≈ 0.916 µg/mL) |  |  | 20 | 
40 | Cc1c(CN2CCOCC2)cc(-c2ccc(C(C)C)cc2)n1C1CCN(C(=O)OC(C)(C)C)CC1 | > 5 | > 10000 |  |  | 
41 | Cc1c(CN2CCOCC2)cc(-c2ccc(C(C)C)cc2)n1C1CCCN(C(=O)OC(C)(C)C)C1 (single isomer, unassigned) | 30 (≈ 14.5 µg/mL) |  |  | 16 | 
42 | NNC(=O)c1ccncc1 [ISONIAZID] | 1.8 (≈ 0.247 µg/mL) |  |  |  | 
